Laboratory results taken from US20240182470A1, “KRASG12C MUTANT PROTEIN INHIBITOR, PREARATION AND USE THEREOF” (YA THERAPEUTICS INC, priority 2021, published 2024).
Read-outs that look alike come from different tables or passages of the source.

Tests used:
KRAS G12C = KRAS G12C (Homo sapiens, UniProt P01116, G12C); conditions: background statement; cited from earlier work
[1] = tested on: H358 (KRAS G12C mutant) cells; experiment: Tumor cell proliferation inhibition assay (Cell Titer-Glo, 72 h); assay type: cell-based; conditions: inhibition of tumor cell proliferation, 72 hours with compound, 10% fetal bovine serum, read-out: NCI-H538 IC50(nm)
Summary of the method: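 H358 cells seeded, cultured 24 h, then exposed to serial compound concentrations for 72 h in 10% FBS at 37 °C, 5% CO2. ATP measured by CellTiter-Glo; % inhibition relative to DMSO (max) and medium-only (min) signals. IC50 from sigmoid dose-response fit, binned into categories A–D.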

KRAS-G2C/SOS1 = molecular target: T1, KRAS-G2C/SOS1 (Homo sapiens, UniProt P01116, G12C); experiment: KRAS-G12C/SOS1 binding experiment (HTRF); conditions: Tag2-KRAS-G12C protein and Tag1-SOS protein
T1 construct: Tag2 (identity not disclosed)
Protocol: • A) Dilute Tag2-KRAS-G12C protein and Tag1-SOS protein with diluent at 1:100, anti-Tag1-Tb3+ antibody and anti-Tag2-XL665 with detection buffer at 1:100 or 1:25 respectively Dilute. • B) Dilute the compound to be tested with diluent starting from […] concentration, 4 times gradient, a total of 6 concentration gradients, and dilute to 10× stock solution. • C) In a 96-well plate, add 4 uLTag2-KRAS-G12C protein, 4 uL Tagl-SOS protein, 2 ul dilution solution (positive control) or test compound (different concentrations of 10× stock solution) to each well in sequence, a total of 10 ul, and incubate at room temperature for […], add pre-mixed 5 uL anti-Tagl-Tb3+ and 5 uL anti-Tag2-xL665, seal the plate, incubate at room temperature for 2 hours, and read the HTRF signal with a TECAN INFINITEF NANO+ microplate reader.
The ratio of […] and donor excitation signals for each single well was calculated using the formula ratio=665 nm signal value/620 nm signal value×[…]. Data were processed using Graphpadprism5 software. IC50 values were calculated by sigmoidal dose-response curve fitting.

[2] = background statement; cited from earlier work

Row | Molecule | tumor effect in vivo (KRAS G12C) | IC50 [1] [nM] | IC50 (KRAS-G2C/SOS1) [nM] | IC50 ([1]; Homo sapiens, NCI-H358) [nM] | pharmacokinetic properties [2]
1 | C=CC(=O)N1CCN(c2ncnc3c(F)c(-c4c(O)cccc4F)c(Cl)cc23)CC1 [ARS-1620] | induce tumor regression | – | – | – | –
2 | 7-(8-Fluoronaphthyl)-6-fluoro-4-(((S)-4-(2-fluoroacryloyl)-3-carbonitrileethylpiperazine)-1-yl)-2-((((S)-1-methylpyrrolidin-2-yl)methoxy)-1,8-naphthyridine [Compound 5] | – | ≤ 50 | < 50 | – | –
3 | C=CC(=O)N1CCN(c2cc(OC[C@@H]3CCCN3C)nc3nc(-c4c(O)cccc4F)c(F)cc23)C[C@@H]1CC#N [Compound 3] | – | – | > 500 | > 2000 | –
4 | C=C(F)C(=O)N1CCN(c2cc(OC[C@@H]3CCCN3C)nc3nc(-c4c(O)cccc4F)c(F)cc23)C[C@@H]1CC#N [Compound 4, 7-(2-Fluoro-6-hydroxyphenyl)-6-fluoro-4-(((S)-4-(2-fluoroacryloyl)-3-carbonitrileethylpiperazine)-1-yl)-2-(((S)-1-methylpyrrolidin-2-yl)methoxy)-1,8-naphthyridine] | – | – | > 500 | > 2000 | –
5 | C=CC(=O)N1CC(N2CCN(C(=O)CNc3cc(C4(C)CC4)c(Cl)cc3O)CC2)C1 [ARS-853] | – | – | – | – | poor
6 | C=CC(=O)N1CCN(c2cc(OC[C@@H]3CCCN3C)nc3nc(-c4c(O)cccc4F)ccc23)[C@H](C)C1 [Compound 1, 7-(2-Fluoro-6-hydroxyphenyl)-4-(((R)-4-acryloyl-2-methylpiperazine)-1-yl)-2-(((S)-1-methylpyrrolidin-2-yl)methoxy)-1,8-naphthyridine] | – | > 2000 | > 500 | – | –
7 | C=CC(=O)N1C2CCC1CN(c1cc(OC[C@@]34CCCN3C[C@H](F)C4)nc3nc(-c4cccc5cccc(F)c45)c(F)cc13)C2 [Compound 28] | – | – | < 50 | ≤ 50 | –
8 | C=C(F)C(=O)N1CCN(c2cc(OC[C@@H]3CCCN3C)nc3nc(-c4c(O)cccc4F)c(F)cc23)[C@H](C)C1 [Compound 2, 7-(2-Fluoro-6-hydroxyphenyl)-6-fluoro-4-(((R)-4-(2-fluoroacryloyl)-2-methylpiperazine)-1-yl)-2-(((S)-1-methylpyrrolidin-2-yl)methoxy)-1,8-naphthyridine] | – | – | > 500 | > 2000 | –
9 | C=CC(=O)N1CCN(c2cc(OC[C@@H]3CCCN3C)nc3nc(-c4cccc5cccc(F)c45)c(F)cc23)[C@H](C)C1 [Compound 7] | – | – | < 50 | ≤ 50 | –
